# Data reported in US20190241962A1, “GENETIC SUSCEPTIBILITY DIAGNOSIS AND TREATMENT OF MENTAL DISORDERS” (priority 2016, published 2019).
# “Also recorded” adds a separate entry of the source.
# Tests used:
# IL-6 = assay: RT-PCR IL-6 mRNA level in the cortex; assay type: in vivo, mice
# Procedure: (§1) 100 microliters of 2-propanol was added. […] RNA was stored at −80 deg C.
# CB1 receptor = assay: RT-PCR CB1 receptor mRNA level in the cortex; assay type: in vivo, mice
# Procedure: as §1
# ABHD6 = assay: RT-PCR ABHD6 mRNA level in the cortex; assay type: in vivo, mice
# Procedure: as §1
# MGL = assay: RT-PCR MGL mRNA level in the cortex; assay type: in vivo, mice
# Procedure: as §1
# FAAH = assay: RT-PCR FAAH mRNA level in the cortex; assay type: in vivo, mice
# Procedure: as §1
# NAPE-PLD = assay: RT-PCR NAPE-PLD mRNA level in the cortex; assay type: in vivo, mice
# Procedure: as §1
# GAD67 = assay: RT-PCR GAD67 mRNA level in the cortex; assay type: in vivo, mice
# Procedure: as §1
# CB2 receptor = assay: RT-PCR CB2 receptor mRNA level in the cortex; conditions: PCP vs control group
# Procedure: Each brain area was placed in an Eppendorf vessel and covered with RNAlater® solution (Ambion). Eppendorfs were stored overnight at 4° C. and then stored at (−)80° C. for permanent use.
# Twenty microliters of 1-bromo-3-chloropropane were added and the Eppendorf was vortexed. After 10 min at room temperature it was centrifuged at 12,000×g for 15 minutes at 4° C. Then the colorless upper aqueous phase was removed to a fresh tube. 100 microliters of 2-propanol was added. Samples were centrifuged again 12,000×g for 10 minutes at 4° C. The supernatant was removed and the RNA pellet was washed with 200 ul cold 75% ethanol. The sample was re-centrifuged at 8000×g for 5 minutes at 4° C. The RNA pellet was dried for 5 minutes by air-drying on ice and 50 ul DEPC water were added to the RNA pellet. RNA was stored at −80 deg C. Genomic DNA strands were then removed by Turbo DNA-free Kit according to manufacturer's recommendation. RNA level was read by Nanodrop® reader. cDNA was prepared according to the manufacturer recommendation using High Capacity cDNA Reverse Transcription Kit (Applied Biosystems).
# RT-PCR reaction mix was prepared with Power SYBR® Green PCR Master Mix (Applied Biosystems) according to manufacturer instructions. Mixes were read with Mx300P (Stratagen) and the results of Ct were analysed according to the delta-delta Ct method of analysis.
# Sabra mice = assay: Open-field test, ambulation behavior, PCP mouse model of schizophrenia
# [1] = tested on: endocannabinoid catabolic enzymes (FAAH, MGL, ABHD6); assay: RT-PCR mRNA level of endocannabinoid catabolic enzymes in cortex and brainstem; assay type: in vivo, mice; conditions: BCP after exposure to phencyclidine, females
# Procedure: as §1
# [2] = PCP vs control group, female mice, left cortex
# [3] = PCP vs control group, female mice, right cortex
# [4] = PCP vs control group, male mice, left cortex
# [5] = PCP vs control group, male mice, right cortex
# [6] = PCP vs control group, female mice, right and left cortices
# [7] = PCP vs control group, male mice, cortex
# [8] = BCP after PCP, female mice, cortex
# [9] = BCP after PCP, male mice, cortex
# [10] = BCP after PCP, female mice, right and left cortices
structure (smiles),measurement,setting,value
"c1ccc(C2(N3CCCCC3)CCCCC2)cc1 [PCP, Phencyclidine]",IL-6 mRNA level,IL-6; [2],not in the left cortex
same,IL-6 mRNA level,IL-6; [3],reduced
same,IL-6 mRNA level,IL-6; [4],not in the left cortex
same,IL-6 mRNA level,IL-6; [5],elevated
same,CB1 receptor mRNA level,CB1 receptor; [3],elevated; also recorded: increased
same,CB1 receptor mRNA level,CB1 receptor; [5],elevated
same,ABHD6 mRNA level,ABHD6; [2],significantly decreased; also recorded: reduced
same,ABHD6 mRNA level,ABHD6; [3],not in the right cortex
same,ABHD6 mRNA level,ABHD6; [4],not in males
same,MGL mRNA level,MGL; [2],significantly decreased; also recorded: reduced
same,MGL mRNA level,MGL; [4],not in males
same,FAAH mRNA level,FAAH; [2],significantly decreased; also recorded: reduced
same,NAPE-PLD mRNA level,NAPE-PLD; [6],reduced
same,NAPE-PLD mRNA level,NAPE-PLD; [7],not altered
same,GAD67 mRNA level,GAD67; [6],reduced
same,GAD67 mRNA level,GAD67; [7],not altered
same,CB2 receptor mRNA level,"CB2 receptor; female mice, right cortex",reduced
same,CB2 receptor mRNA level,CB2 receptor; left cortex,no change
same,ambulation behavior,"Sabra mice; PCP 5 mg/kg vs control group, Sabra female mice",reduced
same,ambulation behavior,"Sabra mice; PCP 5 mg/kg vs control group, Sabra male mice",elevated
"C=C1CC/C=C(\C)CC[C@@H]2[C@@H]1CC2(C)C [BCP, beta-caryophyllene]",IL-6 mRNA level,IL-6; [8],did not alter gene expression of IL-6
same,IL-6 mRNA level,IL-6; [9],reversed the effect of PCP
same,CB1 receptor mRNA level,CB1 receptor; [8],did not alter gene expression of CB1 receptor
same,CB1 receptor mRNA level,CB1 receptor; [9],did not alter gene expression of CB1 receptor
same,ABHD6 mRNA level,ABHD6; [8],did not reverse; also recorded: did not alter gene expression of ABHD6
same,MGL mRNA level,MGL; [8],did not reverse; also recorded: did not alter gene expression of MGL
same,FAAH mRNA level,FAAH; [8],did not reverse; also recorded: did not alter gene expression of FAAH
same,FAAH mRNA level,"FAAH; BCP after PCP, male mice",reversed the effect of PCP
same,NAPE-PLD mRNA level,NAPE-PLD; [10],did not reverse this effect
same,NAPE-PLD mRNA level,NAPE-PLD; [9],did not affect the expression level of NAPE-PLD mRNA
same,GAD67 mRNA level,GAD67; [10],did not reverse this effect
same,GAD67 mRNA level,GAD67; [9],did not affect the expression level of GAD67 mRNA
same,mRNA level of the selected endocannabinoid catabolic enzymes,[1],did not lead to significant changes
same,ambulation behavior,"Sabra mice; BCP 10 mg/kg one hour after PCP, Sabra female mice",reversed altered behavior
same,ambulation behavior,"Sabra mice; BCP 10 mg/kg one hour after PCP, Sabra male mice",reversed altered behavior
